Reference: the NIST ThermoML archive (doi:10.1021/acs.jced.5b00259)

Assay: xn = mol fraction of the nth substance listed
Conditions: 100 kPa, Liquid

CC[NH+]=C(N(C)C)N(C)C.O=S(=O)([N-]S(=O)(=O)C(F)(F)F)C(F)(F)F + CCO
Conditions | mass density [kg/m3] | viscosity [mPa·s]
293.15 K, x1 = 0.1006 | 1023.01 | 2.873
293.15 K, x1 = 0.2004 | 1148.25 | 5.27
293.15 K, x1 = 0.3001 | 1225.91 | 8.21
293.15 K, x1 = 0.4005 | 1278.7 | 13.14
293.15 K, x1 = 0.5018 | 1316.97 | 19.52
293.15 K, x1 = 0.6011 | 1345.48 | 27.48
293.15 K, x1 = 0.6999 | 1367.71 | 36.42
293.15 K, x1 = 0.802 | 1386.71 | 47.47
293.15 K, x1 = 0.892 | 1400.66 | 59.17
293.15 K, x1 = 1 | 1414.89 | 74.61
298.15 K, x1 = 0.1006 | 1018.29 | 2.557
298.15 K, x1 = 0.2004 | 1143.37 | 4.596
298.15 K, x1 = 0.3001 | 1221.07 | 7.081
298.15 K, x1 = 0.4005 | 1273.82 | 11.13
298.15 K, x1 = 0.5018 | 1312.1 | 16.32
298.15 K, x1 = 0.6011 | 1340.6 | 22.71
298.15 K, x1 = 0.6999 | 1362.79 | 29.85
298.15 K, x1 = 0.802 | 1381.82 | 38.34
298.15 K, x1 = 0.892 | 1395.79 | 47.22
298.15 K, x1 = 1 | 1410.03 | 58.86
303.15 K, x1 = 0.1006 | 1013.56 | 2.289
303.15 K, x1 = 0.2004 | 1138.51 | 4.049
303.15 K, x1 = 0.3001 | 1216.29 | 6.157
303.15 K, x1 = 0.4005 | 1268.94 | 9.534
303.15 K, x1 = 0.5018 | 1307.24 | 13.8
303.15 K, x1 = 0.6011 | 1335.71 | 19.1
303.15 K, x1 = 0.6999 | 1357.94 | 24.85
303.15 K, x1 = 0.802 | 1376.95 | 31.52
303.15 K, x1 = 0.892 | 1390.94 | 38.37
303.15 K, x1 = 1 | 1405.19 | 47.27
308.15 K, x1 = 0.1006 | 1008.82 | 2.058
308.15 K, x1 = 0.2004 | 1133.65 | 3.587
308.15 K, x1 = 0.3001 | 1211.51 | 5.391
308.15 K, x1 = 0.4005 | 1264.09 | 8.252
308.15 K, x1 = 0.5018 | 1302.36 | 11.95
308.15 K, x1 = 0.6011 | 1330.83 | 16.25
308.15 K, x1 = 0.6999 | 1353.07 | 20.96
308.15 K, x1 = 0.802 | 1372.11 | 26.35
308.15 K, x1 = 0.892 | 1386.12 | 31.73
308.15 K, x1 = 1 | 1400.38 | 38.71
313.15 K, x1 = 0.1006 | 1004.07 | 1.861
313.15 K, x1 = 0.2004 | 1128.85 | 3.213
313.15 K, x1 = 0.3001 | 1206.71 | 4.757
313.15 K, x1 = 0.4005 | 1259.25 | 7.206
313.15 K, x1 = 0.5018 | 1297.45 | 10.32
313.15 K, x1 = 0.6011 | 1325.97 | 13.99
313.15 K, x1 = 0.6999 | 1348.22 | 17.94
313.15 K, x1 = 0.802 | 1367.28 | 22.3
313.15 K, x1 = 0.892 | 1381.31 | 26.65
313.15 K, x1 = 1 | 1395.59 | 32.2
318.15 K, x1 = 0.1006 | 999.26 | 1.689
318.15 K, x1 = 0.2004 | 1124.03 | 2.884
318.15 K, x1 = 0.3001 | 1201.81 | 4.227
318.15 K, x1 = 0.4005 | 1254.43 | 6.344
318.15 K, x1 = 0.5018 | 1292.57 | 8.977
318.15 K, x1 = 0.6011 | 1321.11 | 12.15
318.15 K, x1 = 0.6999 | 1343.4 | 15.52
318.15 K, x1 = 0.802 | 1362.45 | 19.11
318.15 K, x1 = 0.892 | 1376.52 | 22.55
318.15 K, x1 = 1 | 1390.8 | 27.09
323.15 K, x1 = 0.1006 | 994.44 | 1.515
323.15 K, x1 = 0.2004 | 1119.21 | 2.606
323.15 K, x1 = 0.3001 | 1197.01 | 3.78
323.15 K, x1 = 0.4005 | 1249.62 | 5.627
323.15 K, x1 = 0.5018 | 1287.74 | 7.837
323.15 K, x1 = 0.6011 | 1316.28 | 10.65
323.15 K, x1 = 0.6999 | 1338.59 | 13.58
323.15 K, x1 = 0.802 | 1357.63 | 16.54
323.15 K, x1 = 0.892 | 1371.74 | 19.32
323.15 K, x1 = 1 | 1386.03 | 23.14
